# Results from patent US20030224942A1, “Alkylamino-1,3,5-triazines, processes for their preparation and their use as herbicides and plant growth regulators” (priority 2001, published 2003).
# Experiments:
# [1] = test system: Cyperus spp., Echinochloa spp., Digitaria spp., Sagitaria spp. and Scirpus spp.; assay: Action on harmful plants in rice (paddy rice conditions, visual scoring); format: in vivo, typical rice weeds (gramineous and broad-leaved); conditions: applied into the dammed water, visual scoring about three weeks after application
# How it was run: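 Rice and typical gramineous and broad-leaved rice weeds grown in closed pots in greenhouse under paddy conditions (2-3 cm water) to three-leaf stage (Echinochloa crus-galli 1.5-leaf), then treated with compounds. Plants kept under optimum greenhouse conditions throughout; effect scored visually.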
# [2] = test system: Chenopodium spp., Papaver spp., Polygonum spp., Veronica spp. or Viola spp.; assay: Post-emergence effect on weeds (greenhouse pot test, visual scoring); format: in vivo, monocotyledonous and dicotyledonous weeds; conditions: treated at three-leaf stage; visual scoring after about 3 to 4 weeks; application rate of 0.5 kg and less of active substance per hectare
SMILES,herbicidal activity against harmful plants which are typical for rice crops [1],herbicidal activity post-emergence against harmful plants [2]
CC#Cc1c(F)cc(C(Nc2nc(N)nc(C(F)CC)n2)C2CC2)cc1F (centres unmarked) [Product P29.428],very good herbicidal activity,very good herbicidal activity
CCc1nc(N)nc(NC(C)c2ccc(F)c(C#CC(C)O)c2)n1 (centres unmarked) [Product P7.840],very good herbicidal activity,very good herbicidal activity
CC#Cc1cccc(C(C)Nc2nc(C)nc(N)n2)c1 (centres unmarked) [Product P2.1582],very good herbicidal activity,very good herbicidal activity
CC(F)c1nc(N)nc(NC(c2ccc(C3CC3)cc2)C2CC2)n1 (centres unmarked) [Product P24.1604],very good herbicidal activity,very good herbicidal activity
C#Cc1ccc(C(C)Nc2nc(N)nc(C(C)(C)F)n2)cc1C#C (centres unmarked) [Product P17.358],very good herbicidal activity,very good herbicidal activity
Cc1nc(N)nc(NC(C)c2cc(F)c(C3CC3)c(F)c2)n1 (centres unmarked) [Product P2.960],very good herbicidal activity,very good herbicidal activity
CC(F)c1nc(N)nc(NCc2cccc(C3CC3)c2)n1 (centres unmarked) [Product P21.1603],very good herbicidal activity,very good herbicidal activity
CC#Cc1c(F)cc(C(Nc2nc(N)nc(CC)n2)C2CC2)cc1F (centres unmarked) [Product P9.428],very good herbicidal activity,very good herbicidal activity
C#Cc1c(F)cc(CNc2nc(N)nc(C(C)(C)F)n2)cc1F [Product P16.352],very good herbicidal activity,very good herbicidal activity
CCC(F)c1nc(N)nc(NCc2cc(F)c(C3CC3)c(F)c2)n1 (centres unmarked) [Product P26.960],very good herbicidal activity,very good herbicidal activity
CCc1nc(N)nc(NC(C)c2ccc(C(F)=C(F)F)cc2)n1 (centres unmarked) [Product P7.1568],very good herbicidal activity,very good herbicidal activity
CC(F)c1nc(N)nc(NC(C)c2ccc(C3CC3)cc2)n1 (centres unmarked) [Product P22.1604],very good herbicidal activity,very good herbicidal activity
C#Cc1ccc(C(C)Nc2nc(N)nc(CC)n2)cc1F (centres unmarked) [Product P7.1620],very good herbicidal activity,very good herbicidal activity
CCC(F)c1nc(N)nc(NCc2cc(F)c(C(F)=C(F)F)c(F)c2)n1 (centres unmarked) [Product P26.49],very good herbicidal activity,very good herbicidal activity
Cc1nc(N)nc(NCc2ccc(F)c(C(F)=C(F)F)c2)n1 [Product P1.5],very good herbicidal activity,very good herbicidal activity
CC#Cc1ccc(CNc2nc(C)nc(N)n2)cc1 [Product P1.1583],very good herbicidal activity,very good herbicidal activity
CC(O)C#Cc1cc(C(C)Nc2nc(N)nc(C(C)F)n2)ccc1F (centres unmarked) [Product P22.840],very good herbicidal activity,very good herbicidal activity
CC(F)c1nc(N)nc(NCc2ccc(C(F)=C(F)F)cc2)n1 (centres unmarked) [Product P21.1568],very good herbicidal activity,very good herbicidal activity
CC#Cc1c(F)cc(C(C)Nc2nc(C)nc(N)n2)cc1F (centres unmarked) [Product P2.428],very good herbicidal activity,very good herbicidal activity

SMILES,herbicidal activity against harmful plants which are typical for rice crops [1],herbicidal activity post-emergence against harmful plants [2]
CC(F)C#Cc1ccc(C(C)Nc2nc(N)nc(C(C)(C)F)n2)cc1 (centres unmarked) [Product P17.1598],very good herbicidal activity,very good herbicidal activity
CC(C)c1nc(N)nc(NC(c2cccc(C(F)=C(F)F)c2)C2CC2)n1 (centres unmarked) [Product P14.1567],very good herbicidal activity,very good herbicidal activity
CC(C)c1nc(N)nc(NC(C)c2ccc(C(F)=C(F)F)cc2)n1 (centres unmarked) [Product P12.1568],very good herbicidal activity,very good herbicidal activity
C#Cc1cccc(C(Nc2nc(N)nc(C(C)F)n2)C2CC2)c1 (centres unmarked) [Product P24.1579],very good herbicidal activity,very good herbicidal activity
CC(C)(F)c1nc(N)nc(NCc2cc(F)c(C3CC3)c(F)c2)n1 [Product P16.960],very good herbicidal activity,very good herbicidal activity
CCc1nc(N)nc(NC(c2ccc(C3CC3)cc2)C2CC2)n1 (centres unmarked) [Product P9.1604],very good herbicidal activity,very good herbicidal activity
CC(C)c1nc(N)nc(NC(C)c2cc(F)c(C3CC3)c(F)c2)n1 (centres unmarked) [Product P12.960],very good herbicidal activity,very good herbicidal activity
CC(F)C#Cc1cccc(C(C)Nc2nc(N)nc(C(C)F)n2)c1 (centres unmarked) [Product P22.1597],very good herbicidal activity,very good herbicidal activity
CCC(F)c1nc(N)nc(NCc2cccc(C(F)=C(F)F)c2)n1 (centres unmarked) [Product P26.1567],very good herbicidal activity,very good herbicidal activity
CC#Cc1cc(C(Nc2nc(C)nc(N)n2)C2CC2)ccc1F (centres unmarked) [Product P4.384],very good herbicidal activity,very good herbicidal activity
CCc1nc(N)nc(NCc2ccc(F)c(C3CC3)c2)n1 [Product P6.916],very good herbicidal activity,very good herbicidal activity
C#Cc1ccc(C(Nc2nc(N)nc(C(C)C)n2)C2CC2)cc1 (centres unmarked) [Product P14.1580],very good herbicidal activity,very good herbicidal activity
Cc1nc(N)nc(NC(C)c2cccc(C(F)=C(F)F)c2)n1 (centres unmarked) [Product P2.1567],very good herbicidal activity,very good herbicidal activity
Cc1nc(N)nc(NC(c2ccc(C3CC3)cc2)C2CC2)n1 (centres unmarked) [Product P4.1604],very good herbicidal activity,very good herbicidal activity
CCCCC#Cc1cccc(C(C)Nc2nc(N)nc(C(C)(C)F)n2)c1 (centres unmarked) [Product P17.1594],very good herbicidal activity,very good herbicidal activity
CC(F)c1nc(N)nc(NC(c2cccc(C(F)=C(F)F)c2)C2CC2)n1 (centres unmarked) [Product P24.1567],very good herbicidal activity,very good herbicidal activity
CC(Nc1nc(N)nc(C(C)(C)F)n1)c1ccc(F)c(C2CC2)c1 (centres unmarked) [Product P17.916],very good herbicidal activity,very good herbicidal activity
CC#Cc1ccc(C(C)Nc2nc(N)nc(C(F)CC)n2)cc1 (centres unmarked) [Product P27.1583],very good herbicidal activity,very good herbicidal activity
